Assay results reported in US5663335A, “Immunosuppressive compounds and methods” (priority 1996, dated 1997).
pIC50: −log10 of the molar value. Read-outs that look alike come from different tables or passages of the source.

Legend:
Type in all cases: cell-based
[1] = Cytotoxicity by MTT assay, reported with the MLR assay (Table II); settings: pbmc and thymocytes, cytotoxic when toxicity greater than 25%
Description: (§1) Potential cytotoxicity of the test samples was assessed by the measurement of their effect on the reduction of MTT (3-[4,5-Dimethylthiazole-2-yl]-2,5-diphenyltetrazolium bromide) by cultured cells. MTT, a yellow-colored compound, is reduced by mitochondrial enzymes to form the purple crystalline reduction product formazane, providing an index of cellular respiration on viable cells as well as a sensitive assay for cytotoxicity (Mossmann, 1983).
(§2) The cytotoxicity was assessed in cultured human PBMC and mouse thymocytes. A stock solution of MTT (Sigma) at 5 mg/ml in phosphate buffered saline, pH 7.4, was prepared and stored in the dark at 4° C. PBMCs or thymocytes were cultured with various concentrations of test samples in flatbottom 96-well tissue culture plates (Costar) under the same conditions as those described above, but the stimulants (X-35 or IL-1+PHA) were replaced by appropriate medium. Untreated cells with medium alone and without the test samples were used as controls. After incubation for 21 hours, 25 μl of MTT solution was added to each well. After an additional three hours of incubation, the experiment was terminated by addition of a solution of 10% sodium dodecyl sulfate in 0.01N HCl. Following overnight incubation at 37° C. to solubilize the formazane crystals, optical density was determined at 570-650 nm in microplate reader. […]

[2] = tested on: spleen cells (C57BL/6 responder, irradiated Balb/C stimulator); test: Mixed lymphocyte reaction (MLR): inhibition of responder spleen cell proliferation; settings: Mus musculus, 96 h, four days incubation
Description: Inhibition of cell proliferation in the mixed lymphocyte reaction (MLR) (Bradley, 1980; Mishell, 1980) is a measure of in vivo immunosuppression. Spleen cells from female C57BL/6 mice, the "responder" cells, were prepared and co-cultured alone or in the presence of varying concentrations of the test compounds, with irradiated spleen cells prepared from female Balb/C mice, the "stimulator" cells. Prior irradiation of the stimulator cells rendered them unable to proliferate. A sample of the responder cells was also irradiated for use as a control. The non-irradiated responder cells proliferate in the presence of the allogenic stimulator cells. After a 78-hour incubation, tritiated thymidine was added to the mixed cell cultures, and incorporation of the labeled nucleotide into DNA was measured as an index of cell proliferation. […]
In the assay, 4×10^5 cells of R were cocultured with 4×10^5 cells of Sx in 200 μl of medium in round bottom 96 well tissue culture plates. […] The spontaneous proliferation of R was also measured.
The culture plates were incubated at 37° C. in a 5% CO2 incubator for four days. […] Cells were then harvested and counted. […] Sample cpm was calculated as (R+Sx+sample)cpm-(R+Rx +sample)cpm; control cpm was calculated as (R+Sx)cpm-(R+Rx)cpm. Percent suppression of MLR activity was calculated as (1-sample cpm/control cpm)×100. […]

[3] = Cytotoxicity by MTT assay, reported with the IL-1 assay (Table I); settings: mouse, thymocytes, cytotoxic when toxicity greater than 25%
Description: as §1, §2

Question: With CC(C)[C@]12O[C@H]1[C@@H]1O[C@]13[C@]1(O[C@H]1C[C@H]1C4=C(CC[C@@]13C)C(=O)OC4)[C@@H]2O [Triptolide, triptolide] as the compound, how does the MCC [1] read?
Answer: 0.0133 µg/mL

Question: And the IC50 ([2]; read-out: IC50 (concentration of sample producing 50% suppression of proliferation), MLR assay)?
Answer: 0.9 ng/mL

Question: And the pIC50 ([2]; read-out: IC50, MLR assay)?
Answer: 8.60

Question: What about the MCC [3] of the same compound?
Answer: > 12.5 µg/mL
